The results in this text go back to patent publication US8889704B2 (Array BioPharma Inc., priority 2011, dated 2014).

Where a name gives a salt, the structure may show the parent alone. Where only a bound is given, the exact number is not on record here.

Format in all cases: biochemical
In one assay the target is recombinant rat PIM-3 (Rattus norvegicus, UniProt O70444). Kind of assay: PIM-3 Assay (as Example A). The settings on record: averaged IC50; 30 μM ATP, 3.75 μM PIM2tide, 0.5 nM PIM-3. The procedure, abridged: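 Recombinant rat PIM-3 (0.5 nM) with 3.75 μM PIM2tide and 30 μM [γ-33P]ATP in MOPS pH 7.4 buffer, 60 min at 22 °C; labelled peptide captured on phosphocellulose filters and counted by scintillation. 10-point curve (top dose 10 μM, 2% DMSO); IC50 from 4-parameter fit of percent of control.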

Assay [1] concerns the target T1, GST-tagged recombinant full-length human Pim-2 (Homo sapiens, UniProt Q9P1W9).
T1 construct: GST-tagged recombinant full-length human Pim-2; GST
The experiment in a line: PIM-2 Assay (as Example A). The note with it: averaged IC50; 4 μM ATP, 1.0 μM PIM2tide, 1.5 nM Pim-2. In a few lines:
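Radiometric filter-binding assay: GST-tagged full-length human Pim-2 (1.5 nM) phosphorylates 1.0 μM PIM2tide with 4 μM [γ-33P]ATP for 60 min at 22 °C in pH 7.4 MOPS buffer, 2% DMSO. 10-point 3-fold dilutions from 10 μM top dose; IC50 from 4-parameter fit of percent of control.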

A further assay concerns the target PIM-1 (Homo sapiens, UniProt P11309). Kind of assay: Enzyme PIM-1 Assay ([33P]ATP incorporation into PIM2tide, filter plate). The note with it: averaged IC50; 35 μM ATP, 7.5 μM PIM2tide, 0.25 nM PIM-1, 60 min at 22° C. The procedure, abridged:
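Radiometric assay: 0.25 nM PIM-1 phosphorylates 7.5 μM PIM2tide with 35 μM [γ-33P]ATP in 20 mM MOPS pH 7.4, 10 mM MgCl2, 1 mM DTT, 0.005% Tween-20, 60 min at 22 °C. Product captured on P81 filters, scintillation counted; 10-point 3-fold curve from 10 μM top, 2% DMSO, IC50 by 4-parameter logistic fit of POC.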

T1 sequence (Q9P1W9 whole entry): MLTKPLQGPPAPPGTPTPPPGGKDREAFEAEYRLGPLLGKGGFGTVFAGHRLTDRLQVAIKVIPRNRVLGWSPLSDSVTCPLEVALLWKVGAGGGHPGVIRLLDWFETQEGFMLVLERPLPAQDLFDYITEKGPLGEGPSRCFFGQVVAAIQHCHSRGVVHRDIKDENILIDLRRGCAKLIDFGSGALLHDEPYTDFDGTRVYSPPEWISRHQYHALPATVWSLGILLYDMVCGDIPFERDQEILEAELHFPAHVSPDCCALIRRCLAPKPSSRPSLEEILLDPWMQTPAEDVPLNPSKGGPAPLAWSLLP
Chain of PIM-1 (P11309 whole entry, species assumed): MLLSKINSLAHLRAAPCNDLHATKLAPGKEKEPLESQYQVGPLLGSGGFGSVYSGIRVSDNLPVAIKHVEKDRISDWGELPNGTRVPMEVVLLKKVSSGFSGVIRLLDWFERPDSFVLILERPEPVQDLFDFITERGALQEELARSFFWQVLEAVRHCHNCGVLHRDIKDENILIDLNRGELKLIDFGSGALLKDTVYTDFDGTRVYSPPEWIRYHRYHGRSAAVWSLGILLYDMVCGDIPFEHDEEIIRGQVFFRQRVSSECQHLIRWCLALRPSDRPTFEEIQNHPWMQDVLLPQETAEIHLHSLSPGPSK

As a reminder, the IC50 is the concentration at which inhibition is half-maximal. Take `CCNC(=O)Cc1cccc2ccc(-c3nnc4ccc([C@@H](N5CC[C@H](N)C5)C(F)(F)F)cn34)nc12` [Example 235, 2-(2-(6-((R)-1-((S)-3-aminopyrrolidin-1-yl)-2,2,2-trifluoroethyl)-[1,2,4]triazolo[4,3-a]pyridin-3-yl)quinolin-8-yl)-N-ethylacetamide dihydrochloride]: the values for the IC50 (on recombinant rat PIM-3; in assay [1]; against PIM-1) were 33 nM, over 1000 nM and 7.81 nM, respectively.

For `CC(C)(O)Cc1cc2nc(-c3nnc4ccc([C@@H](N5CC[C@H](N)C5)C(F)(F)F)cn34)ccc2cc1F` [Example 236, dihydrochloride], the IC50 on recombinant rat PIM-3 was 2.4 nM; in assay [1] it was 675 nM; on PIM-1, 1.08 nM.

With `CC(C)(O)Cc1cc2nc(-c3nnc4ccc([C@H](N5CC[C@H](N)C5)C(F)(F)F)cn34)ccc2cc1F` [Example 237, dihydrochloride], the IC50 at recombinant rat PIM-3 was found to be 1.8 nM; in assay [1], 211 nM; against PIM-1, 2.91 nM.

Consider `C[C@H](CO)Oc1cc(F)cc2ccc(-c3nnc4ccc([C@@H](N5CC[C@H](N)C5)C(F)(F)F)cn34)nc12` [Example 238, (R)-2-(2-(6-((R)-1-((S)-3-aminopyrrolidin-1-yl)-2,2,2-trifluoroethyl)-[1,2,4]triazolo[4,3-a]pyridin-3-yl)-6-fluoroquinolin-8-yloxy)propan-1-ol dihydrochloride], for which the figures for the IC50 (on recombinant rat PIM-3; in assay [1]; on PIM-1) were 0.6 nM, 166 nM and 0.17 nM, respectively.

Turning to `N[C@H]1CCN([C@H](c2ccc3nnc(-c4ccc5ccc(OC(F)(F)F)cc5n4)n3c2)C(F)(F)F)C1` [Example 239, (S)-1-((R)-2,2,2-trifluoro-1-(3-(7-(trifluoromethoxy)quinolin-2-yl)-[1,2,4]triazolo[4,3-a]pyridin-6-yl)ethyl)pyrrolidin-3-amine dihydrochloride], the IC50 was 12 nM on recombinant rat PIM-3, over 1000 nM in assay [1] and 1.66 nM on PIM-1.

Consider `COc1cccc2ccc(-c3nnc4ccc([C@@H](N5CC[C@@](C)(N)C5)C(F)(F)F)cn34)nc12` [Example 240, (R)-3-methyl-1-((R)-2,2,2-trifluoro-1-(3-(8-methoxyquinolin-2-yl)-[1,2,4]triazolo[4,3-a]pyridin-6-yl)ethyl)pyrrolidin-3-amine dihydrochloride], for which the concentration for half-maximal inhibition (IC50) at recombinant rat PIM-3 was 18 nM; in assay [1], over 1000 nM; on PIM-1 it was 2.37 nM.

Regarding `COc1cc(F)cc2ccc(-c3nnc4ccc([C@@H](N5CC[C@@](C)(N)C5)C(F)(F)F)cn34)nc12` [Example 241, (R)-3-methyl-1-((R)-2,2,2-trifluoro-1-(3-(6-fluoro-8-methoxyquinolin-2-yl)-[1,2,4]triazolo[4,3-a]pyridin-6-yl)ethyl)pyrrolidin-3-amine dihydrochloride], the IC50 on recombinant rat PIM-3 is 17 nM; in assay [1], over 1000 nM; against PIM-1, 2.6 nM.

`COc1cccc2ccc(-c3nnc4ccc([C@@H](N5CC[C@](C)(N)C5)C(F)(F)F)cn34)nc12` [Example 246, (S)-3-methyl-1-((R)-2,2,2-trifluoro-1-(3-(8-methoxyquinolin-2-yl)-[1,2,4]triazolo[4,3-a]pyridin-6-yl)ethyl)pyrrolidin-3-amine dihydrochloride]: the IC50 on recombinant rat PIM-3 is 15 nM; in assay [1], over 1000 nM; on PIM-1, 1.77 nM.

`CCOc1cc2nc(-c3nnc4ccc([C@@H](N5CC[C@](C)(N)C5)C(F)(F)F)cn34)ccc2cc1F` [Example 247, (S)-1-((R)-1-(3-(7-ethoxy-6-fluoroquinolin-2-yl)-[1,2,4]triazolo[4,3-a]pyridin-6-yl)-2,2,2-trifluoroethyl)-3-methylpyrrolidin-3-amine dihydrochloride]: the IC50 on recombinant rat PIM-3 came out at 1.2 nM; in assay [1], 392 nM; against PIM-1 it was 0.41 nM.

Take `COc1cc(F)cc2ccc(-c3nnc4ccc([C@@H](N5CC[C@](C)(N)C5)C(F)(F)F)cn34)nc12` [Example 248, (S)-3-methyl-1-((R)-2,2,2-trifluoro-1-(3-(6-fluoro-8-methoxyquinolin-2-yl)-[1,2,4]triazolo[4,3-a]pyridin-6-yl)ethyl)pyrrolidin-3-amine dihydrochloride]: the IC50 is 8.1 nM on recombinant rat PIM-3, over 1000 nM in assay [1] and 1.17 nM against PIM-1.

For `CCOc1cc2nc(-c3nnc4ccc([C@H](N5CC[C@H](N)C5)C(F)(F)F)cn34)ccc2cc1F` [Example 249, (S)-1-((S)-1-(3-(7-ethoxy-6-fluoroquinolin-2-yl)-[1,2,4]triazolo[4,3-a]pyridin-6-yl)-2,2,2-trifluoroethyl)pyrrolidin-3-amine dihydrochloride], the IC50 was 0.8 nM on recombinant rat PIM-3, 83 nM in assay [1] and 0.51 nM at PIM-1.

In the case of `N[C@H]1CCN([C@H](c2ccc3nnc(-c4ccc5cc(F)cc(OCCO)c5n4)n3c2)C(F)(F)F)C1` [Example 254, 2-(2-(6-((R)-1-((S)-3-aminopyrrolidin-1-yl)-2,2,2-trifluoroethyl)-[1,2,4]triazolo[4,3-a]pyridin-3-yl)-6-fluoroquinolin-8-yloxy)ethanol dihydrochloride], the IC50 at recombinant rat PIM-3 was 0.9 nM; in assay [1] it was 273 nM; on PIM-1, 0.25 nM.

As to `CCOc1ccc2ccc(-c3nnc4ccc([C@@H](N5CC[C@H](N)C5)C(F)(F)F)cn34)nc2c1` [Example 255, (S)-1-((R)-1-(3-(7-ethoxyquinolin-2-yl)-[1,2,4]triazolo[4,3-a]pyridin-6-yl)-2,2,2-trifluoroethyl)pyrrolidin-3-amine dihydrochloride], the IC50 on recombinant rat PIM-3 was determined as 0.6 nM; in assay [1], 284 nM; at PIM-1 it was 0.24 nM.

As to `CCOc1ccc2ccc(-c3nnc4ccc([C@H](N5CC[C@H](N)C5)C(F)(F)F)cn34)nc2c1` [Example 256, (S)-1-((S)-1-(3-(7-ethoxyquinolin-2-yl)-[1,2,4]triazolo[4,3-a]pyridin-6-yl)-2,2,2-trifluoroethyl)pyrrolidin-3-amine dihydrochloride], the IC50 was 1 nM at recombinant rat PIM-3, 199 nM in assay [1] and 0.58 nM against PIM-1.

As for `CCOc1ccc2ccc(-c3nnc4ccc([C@@H](N5CCC6(CCCN6)C5)C(F)(F)F)cn34)nc2c1` (stereo partly drawn) [Example 257, 7-ethoxy-2-(6-((1R)-2,2,2-trifluoro-1-(1,7-diazaspiro[4.4]nonan-7-yl)ethyl)-[1,2,4]triazolo[4,3-a]pyridin-3-yl)quinoline dihydrochloride], the values for the IC50 (on recombinant rat PIM-3; in assay [1]; at PIM-1) were 9 nM, 724 nM and 1.45 nM, respectively.

For the molecule `CCOc1ccc2ccc(-c3nnc4ccc([C@H](N5CCC6(CCCN6)C5)C(F)(F)F)cn34)nc2c1` (stereo partly drawn) [Example 258, 7-ethoxy-2-(6-((1S)-2,2,2-trifluoro-1-(1,7-diazaspiro[4.4]nonan-7-yl)ethyl)-[1,2,4]triazolo[4,3-a]pyridin-3-yl)quinoline dihydrochloride], the IC50 on recombinant rat PIM-3 amounted to 1.9 nM; in assay [1], 531 nM; against PIM-1, 2.05 nM.

Consider `CC(C)(O)COc1cc(F)cc2ccc(-c3nnc4ccc([C@@H](N5CC[C@H](N)C5)C(F)(F)F)cn34)nc12` [Example 259, 1-(2-(6-((R)-1-((S)-3-aminopyrrolidin-1-yl)-2,2,2-trifluoroethyl)-[1,2,4]triazolo[4,3-a]pyridin-3-yl)-6-fluoroquinolin-8-yloxy)-2-methylpropan-2-ol formate], for which the IC50 at recombinant rat PIM-3 stood at 0.3 nM; in assay [1] it was 54 nM; against PIM-1 it was 0.12 nM.

For the molecule `COCCOc1ccc2ccc(-c3nnc4ccc([C@H](N5CC[C@](C)(N)C5)C(F)(F)F)cn34)nc2c1` [Example 260, (S)-3-methyl-1-((S)-2,2,2-trifluoro-1-(3-(7-(2-methoxyethoxy)quinolin-2-yl)-[1,2,4]triazolo[4,3-a]pyridin-6-yl)ethyl)pyrrolidin-3-amine dihydrochloride], the IC50 came out at 0.5 nM on recombinant rat PIM-3, 95 nM in assay [1] and 0.39 nM against PIM-1.

Consider `COCCOc1ccc2ccc(-c3nnc4ccc([C@@H](N5CC[C@](C)(N)C5)C(F)(F)F)cn34)nc2c1` [Example 261, (S)-3-methyl-1-((R)-2,2,2-trifluoro-1-(3-(7-(2-methoxyethoxy)quinolin-2-yl)-[1,2,4]triazolo[4,3-a]pyridin-6-yl)ethyl)pyrrolidin-3-amine dihydrochloride], for which the figures for the IC50 (at recombinant rat PIM-3; in assay [1]; against PIM-1) were 3.3 nM, over 1000 nM and 0.6 nM, respectively.

On to `CCOc1ccc2ccc(-c3nnc4ccc([C@H](N5CC[C@](C)(N)C5)C(F)(F)F)cn34)nc2c1` [Example 262, (S)-1-((S)-1-(3-(7-ethoxyquinolin-2-yl)-[1,2,4]triazolo[4,3-a]pyridin-6-yl)-2,2,2-trifluoroethyl)-3-methylpyrrolidin-3-amine dihydrochloride], for which the IC50 at recombinant rat PIM-3 was 0.4 nM; in assay [1] it was 63 nM; against PIM-1 it was 0.22 nM.
